Source: publication PMC2732577 (Biochemistry, 2008)
Entries after “also recorded” stand apart in the source; their conditions may differ. Ends that are not written are not given here.

Legend:
Type in all cases: biochemical
[1] = target: T1, Pf-Sir2 (Plasmodium falciparum, UniProt Q8IE47); assay: Thionicotinamide base-exchange assay; conditions: similar reaction conditions, H3 substrate
T1 sequence (Q8IE47 1-273): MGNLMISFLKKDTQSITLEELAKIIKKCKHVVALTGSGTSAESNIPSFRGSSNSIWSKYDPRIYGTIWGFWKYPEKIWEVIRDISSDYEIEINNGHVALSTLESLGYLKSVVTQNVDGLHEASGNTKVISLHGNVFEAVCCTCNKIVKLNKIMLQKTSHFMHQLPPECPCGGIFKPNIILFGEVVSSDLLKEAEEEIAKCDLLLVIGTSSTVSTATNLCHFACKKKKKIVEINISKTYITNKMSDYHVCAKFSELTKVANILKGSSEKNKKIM

[2] = target: T1, Pf-Sir2
[3] = target: T1, Pf-Sir2; remark: listed apart in the source
[4] = target: T1, Pf-Sir2; remark: listed apart in the source
[5] = target: T1, Pf-Sir2; assay: Decomposition of AADPR in presence of Pf-Sir2; conditions: data not shown

With NC(=S)c1cccnc1 [thionicotinamide] the “base-exchange Km, times higher than nicotinamide” value [1] was 8 times and the “base-exchange, times slower than nicotinamide” value [1] was “approximately 4 times”.
For NC(=O)c1ccc[n+]([C@@H]2O[C@H](COP(=O)([O-])OP(=O)(O)OC[C@H]3O[C@@H](n4cnc5c(N)ncnc54)[C@H](O)[C@@H]3O)[C@@H](O)[C@H]2O)c1 [NAD^+, nicotinamide adenine dinucleotide oxidized form], the Km ([2]; read-out: Km for NAD^+ in H3 deacetylation) was 120 µM, the “rate of peptide-independent solvolysis vs deacetylation” value [3] was “exceeds the deacetylation rate for H3” and the “kcat, NAD^+ hydrolysis, no peptide” value ([3]; pH 7.3) was 1.2 ± 0.2 10^−3 s^−1. For the same molecule, the “stereochemistry of Pf-Sir2 methanolysis product” value [4] was “inverted stereochemistry; also recorded: only α-1-O-methyl-ADPR as a product (no β)”, the “k0 (α-MeO-ADPR)” value ([4]; pH 8.5) was 0.00027 s⁻¹ and the “ksolvolysis (combined ADPR and 1-O-methyl-ADPR)” value ([4]; pH 8.5) was 0.00138 s⁻¹.
For “p300: human di-acetylated p300 sequence corresponding to amino acid positions 1034–1053 (ATQSSPAPGQSKKKIFKPEE; also: di-acetylated, places not given here; UniProt Q09472 1034-1053, looked up, fragment)”, the deacetylation co-product [2] was 2′- and 3′- O-acetyl-ADP-ribose (AADPR) and the “stimulation of NAD^+ hydrolysis by peptide” value [3] was “best hydrolysis stimulating substrate”.
“O-acetyl-adenosine diphosphoribose [AADPR]” was tested, and the “decomposition of AADPR on adding Pf-Sir2 to SIRT1 reaction mixture” value [5] was “not decomposed” and the “decomposition of purified AADPR in presence of Pf-Sir2” value ([5]; relative to a control) was “not decomposed faster relative to a control”.
